Where a SMILES comes first, the peptide text is derived from it. Bridges are numbered along the chain shown (N, C = ends). [ ]: non-standard residue; d: D form. Hyp = O=C(O)[C@@H]1C[C@@H](O)CN1; Cit = NC(=O)NCCC[C@H](N)C(=O)O; Pen = CC(C)(S)[C@H](N)C(=O)O; dDab = NCC[C@@H](N)C(=O)O; Dab = NCC[C@H](N)C(=O)O
Experiments:
Format in all cases: cell-based
[1] = test system: Escherichia coli MCR-1 Af 45; conditions: MCR-1 Af 45
Procedure: (§1) Lyophilized peptides were weighed on a Microbalance (Mettler MT5) and dissolved in sterile water to a final concentration of 1 mg/mL. Stock solutions were kept at +4° C., light protected.
(§2) The selective antimicrobial activities of the peptides were determined in 96-well plates (Greiner, polystyrene) by the standard CLSI broth microdilution method (Clinical and Laboratory Standards Institute. Methods for Dilution Antimicrobial Susceptibility Tests for Bacteria That Grow Aerobically; Approved Standard-Ninth Edition. CLSI document M07-A9 (ISBN 1-56238-783-9 [Print]; ISBN 1-56238-784-7 [Electronic]). Clinical and Laboratory Standards Institute, 950 West Valley Road, Suite 2500, Wayne, Pennsylvania 19087, USA, 2012) with slight modifications.
(§3) Colonies of the microorganisms were diluted in saline (0.85%, NaCl) and adjusted using a McFarland reader (bioMérieux SA, Marcy-l'Etoile, France) to 0.5 McFarland standard. Subsequently, the bacterial suspension was diluted in Mueller-Hinton II (MHII, cation adjusted) broth to give approximately 5×10^5 colony forming units (CFU/mL).
(§4) Inocula of the microorganisms were diluted into Mueller-Hinton II (MH, cation adjusted) broth and compared with a 0.5 McFarland standard to give appr. 10^6 colony forming units (CFU)/mL. Aliquots (90 μl) of inoculate were added to 10 μl of water+P-80 (Polysorbate 80, 0.002% final concentration) containing the peptide in serial two-fold dilutions at 10 fold final concentration. The following microorganisms were used to determine antibiotic selectivity of the peptides: Escherichia coli ATCC 25922, Escherichia coli MCR-1 Af 45 and Klebsiella pneumoniae SSI3010. Antimicrobial activities of the peptides were expressed as the minimal inhibitory concentration (MIC) in μg/mL at which no visible growth was observed after 18-20 hours of incubation at 35° C.

[2] = test system: Klebsiella pneumoniae SSI3010; conditions: SSI3010
Procedure: as §1, §2, §3, §4

[3] = test system: Escherichia coli ATCC 25922; conditions: ATCC 25922
Procedure: as §1, §2, §3, §4

[4] = test system: human red blood cells (hRBC); conditions: red cells of human, 1 h, 200 μg/mL
Procedure: Lyophilized peptides were weighed on a Microbalance (Mettler MT5) and dissolved in sterile water to a final concentration of 1 mg/mL. Stock solutions were kept at +4° C., light protected. The peptides were tested for their hemolytic activity against human red blood cells (hRBC). Fresh hRBC were washed three times with phosphate buffered saline (PBS) and centrifuged for 5 min at 3000×g. Compounds (200 μg/mL) were incubated with 20% hRBC (v/v) for 1 h at 37° C. and shaking at 300 rpm. A value of 0% and 100% cell lyses, respectively, was determined by incubation of hRBC in the presence of PBS and 2.5% Triton X-100 in H2O, respectively. The samples were centrifuged, the supernatants were 8-fold diluted in PBS buffer and the optical densities (OD) were measured at 540 nm. The 100% lyses value (OD540H2O) gave an OD540 of approximately 0.5-1.0. Percent hemolysis was calculated as follows: (OD540peptide/OD540H2O)×100%.

SMILES | Escherichia coli MCR-1 Af45 MIC [1] [µg/mL] | Klebsiella pneumoniae SSI3010 MIC [2] [µg/mL] | Escherichia coli ATCC 25922 MIC [3] [µg/mL] | Hemolysis at 0.2 g/L [4] [%]
CC[C@H](C)[C@H](NC(=O)[C@@H]1C[C@@H](O)CN1C(=O)[C@@H](N)C(C)C)C(=O)N[C@@H]1C(=O)N[C@@H](Cc2ccc(O)cc2)C(=O)N[C@@H]([C@@H](C)O)C(=O)N[C@@H](CC(N)=O)C(=O)N[C@@H](CCCNC(=N)N)C(=O)N[C@@H](CCN)C(=O)N[C@@H](CC(N)=O)C(=O)N[C@H](CCN)C(=O)N[C@@H](CCCCN)C(=O)N[C@@H](CCN)C(=O)N[C@@H](CCN)C(=O)N[C@H](C(=O)N[C@@H](Cc2ccc(O)cc2)C(=O)O)CSSC1(C)C [Example 19, Val-Hyp-Ile-Pen-Tyr-Thr-Asn-Arg-Dab-Asn-^DDab-Lys-Dab-Dab-Cys-Tyr] (H-V[Hyp]I[Pen]YTNR[Dab]N[dDab]K[Dab][Dab]CY-OH; disulfide 4-15) | 0.125 | 0.25 | 0.125 | <1
CC[C@H](C)[C@H](NC(=O)[C@@H]1C[C@@H](O)CN1C(=O)[C@@H](N)C(C)C)C(=O)N[C@@H]1C(=O)N[C@@H](Cc2ccc(O)cc2)C(=O)N[C@@H](CO)C(=O)N[C@@H](C)C(=O)N[C@@H](CCCNC(=N)N)C(=O)N[C@@H](CCN)C(=O)N[C@@H]([C@@H](C)O)C(=O)N[C@H](CCN)C(=O)N[C@@H](CCCCN)C(=O)N[C@@H](CCN)C(=O)N[C@@H](CCN)C(=O)N[C@H](C(=O)N[C@@H](Cc2ccc(O)cc2)C(=O)O)CSSC1(C)C [Example 20, Val-Hyp-Ile-Pen-Tyr-Ser-Ala-Arg-Dab-Thr-^DDab-Lys-Dab-Dab-Cys-Tyr] (H-V[Hyp]I[Pen]YSAR[Dab]T[dDab]K[Dab][Dab]CY-OH; disulfide 4-15) | 0.5 | 1 | 0.5 | <1
CC[C@H](C)[C@@H]1NC(=O)[C@H](CO)NC(=O)[C@H](Cc2ccc(O)cc2)NC(=O)[C@@H](NC(=O)[C@@H](NC(=O)[C@@H]2C[C@@H](O)CN2C(=O)[C@@H](N)C(C)C)[C@@H](C)CC)C(C)(C)SSC[C@@H](C(=O)N[C@@H](Cc2ccc(O)cc2)C(=O)O)NC(=O)[C@H](CCN)NC(=O)[C@H](CCN)NC(=O)[C@H](CCCCN)NC(=O)[C@@H](CCN)NC(=O)[C@H]([C@@H](C)O)NC(=O)[C@H](CCN)NC(=O)[C@H](CCCNC(=N)N)NC1=O [Example 21, Val-Hyp-Ile-Pen-Tyr-Ser-Ile-Arg-Dab-Thr-^DDab-Lys-Dab-Dab-Cys-Tyr] (H-V[Hyp]I[Pen]YSIR[Dab]T[dDab]K[Dab][Dab]CY-OH; disulfide 4-15) | 0.0625 | 0.125 | 0.0625 | <1
CC[C@H](C)[C@H](NC(=O)[C@@H]1C[C@@H](O)CN1C(=O)[C@@H](N)C(C)C)C(=O)N[C@@H]1C(=O)N[C@@H](Cc2ccc(O)cc2)C(=O)N[C@@H](CO)C(=O)N[C@@H](CCC(=O)O)C(=O)N[C@@H](CCCNC(=N)N)C(=O)N[C@@H](CCN)C(=O)N[C@@H]([C@@H](C)O)C(=O)N[C@H](CCN)C(=O)N[C@@H](CCCCN)C(=O)N[C@@H](CCN)C(=O)N[C@@H](CCN)C(=O)N[C@H](C(=O)N[C@@H](Cc2ccc(O)cc2)C(=O)O)CSSC1(C)C [Example 22, Val-Hyp-Ile-Pen-Tyr-Ser-Glu-Arg-Dab-Thr-^DDab-Lys-Dab-Dab-Cys-Tyr] (H-V[Hyp]I[Pen]YSER[Dab]T[dDab]K[Dab][Dab]CY-OH; disulfide 4-15) | 0.25 | 0.5 | 0.5 | <1
CC[C@H](C)[C@H](NC(=O)[C@@H]1C[C@@H](O)CN1C(=O)[C@@H](N)C(C)C)C(=O)N[C@@H]1C(=O)N[C@@H](Cc2ccc(O)cc2)C(=O)N[C@@H](CO)C(=O)N[C@@H](CC(=O)O)C(=O)N[C@@H](CCCNC(=N)N)C(=O)N[C@@H](CCN)C(=O)N[C@@H]([C@@H](C)O)C(=O)N[C@H](CCN)C(=O)N[C@@H](CCCCN)C(=O)N[C@@H](CCN)C(=O)N[C@@H](CCN)C(=O)N[C@H](C(=O)N[C@@H](Cc2ccc(O)cc2)C(=O)O)CSSC1(C)C [Example 23, Val-Hyp-Ile-Pen-Tyr-Ser-Asp-Arg-Dab-Thr-^DDab-Lys-Dab-Dab-Cys-Tyr] (H-V[Hyp]I[Pen]YSDR[Dab]T[dDab]K[Dab][Dab]CY-OH; disulfide 4-15; N-terminus assumed) | 0.25 | 0.5 | 0.5 | <1
CC[C@H](C)[C@H](NC(=O)[C@@H]1C[C@@H](O)CN1C(=O)[C@@H](N)C(C)C)C(=O)N[C@@H]1C(=O)N[C@@H](Cc2ccc(O)cc2)C(=O)N[C@@H](CO)C(=O)N[C@@H](CO)C(=O)N[C@@H](CCCNC(=N)N)C(=O)N[C@@H](CCN)C(=O)N[C@@H]([C@@H](C)O)C(=O)N[C@H](CCN)C(=O)N[C@@H](CCCCN)C(=O)N[C@@H](CCN)C(=O)N[C@@H](CCN)C(=O)N[C@H](C(=O)N[C@@H](Cc2ccc(O)cc2)C(=O)O)CSSC1(C)C [Example 24, Val-Hyp-Ile-Pen-Tyr-Ser-Ser-Arg-Dab-Thr-^DDab-Lys-Dab-Dab-Cys-Tyr] (H-V[Hyp]I[Pen]YSSR[Dab]T[dDab]K[Dab][Dab]CY-OH; disulfide 4-15) | 0.125 | 0.25 | 0.125 | <1
CC[C@H](C)[C@H](NC(=O)[C@@H]1C[C@@H](O)CN1C(=O)[C@@H](N)C(C)C)C(=O)N[C@@H]1C(=O)N[C@@H](Cc2ccc(O)cc2)C(=O)N[C@@H](CO)C(=O)N[C@@H](CC(N)=O)C(=O)N[C@@H](CCCNC(=N)N)C(=O)N[C@@H](C)C(=O)N[C@@H]([C@@H](C)O)C(=O)N[C@H](CCN)C(=O)N[C@@H](CCCCN)C(=O)N[C@@H](CCN)C(=O)N[C@@H](CCN)C(=O)N[C@H](C(=O)N[C@@H](Cc2ccc(O)cc2)C(=O)O)CSSC1(C)C [Example 25, Val-Hyp-Ile-Pen-Tyr-Ser-Asn-Arg-Ala-Thr-^DDab-Lys-Dab-Dab-Cys-Tyr] (H-V[Hyp]I[Pen]YSNRAT[dDab]K[Dab][Dab]CY-OH; disulfide 4-15) | 0.5 | 1 | 0.5 | <1
CC[C@H](C)[C@H](NC(=O)[C@@H]1C[C@@H](O)CN1C(=O)[C@@H](N)C(C)C)C(=O)N[C@@H]1C(=O)N[C@@H](Cc2ccc(O)cc2)C(=O)N[C@@H](CO)C(=O)N[C@@H](CC(N)=O)C(=O)N[C@@H](CCCNC(=N)N)C(=O)N[C@H](CCN)C(=O)N[C@@H]([C@@H](C)O)C(=O)N[C@H](CCN)C(=O)N[C@@H](CCCCN)C(=O)N[C@@H](CCN)C(=O)N[C@@H](CCN)C(=O)N[C@H](C(=O)N[C@@H](Cc2ccc(O)cc2)C(=O)O)CSSC1(C)C [Example 26, Val-Hyp-Ile-Pen-Tyr-Ser-Asn-Arg-^DDab-Thr-^DDab-Lys-Dab-Dab-Cys-Tyr] (H-V[Hyp]I[Pen]YSNR[dDab]T[dDab]K[Dab][Dab]CY-OH; disulfide 4-15) | 0.125 | 0.5 | 0.25 | <1
CC[C@H](C)[C@H](NC(=O)[C@@H]1C[C@@H](O)CN1C(=O)[C@@H](N)C(C)C)C(=O)N[C@@H]1C(=O)N[C@@H](Cc2ccc(O)cc2)C(=O)N[C@@H](CO)C(=O)N[C@@H](CC(N)=O)C(=O)N[C@@H](CCCNC(=N)N)C(=O)N[C@@H](CCCNC(N)=O)C(=O)N[C@@H]([C@@H](C)O)C(=O)N[C@H](CCN)C(=O)N[C@@H](CCCCN)C(=O)N[C@@H](CCN)C(=O)N[C@@H](CCN)C(=O)N[C@H](C(=O)N[C@@H](Cc2ccc(O)cc2)C(=O)O)CSSC1(C)C [Example 27, Val-Hyp-Ile-Pen-Tyr-Ser-Asn-Arg-Cit-Thr-^DDab-Lys-Dab-Dab-Cys-Tyr] (H-V[Hyp]I[Pen]YSNR[Cit]T[dDab]K[Dab][Dab]CY-OH; disulfide 4-15) | 0.25 | 0.5 | 0.25 | <1
